Activity calls are given as the source filed them. The calls are words filed in the database; no cut-off is given here.
Key:
[1] = Toxicity in nude BALB/c mouse assessed as change in cholesterol level at 40 to 80 mg/kg, po once daily for 4 weeks measured post-last dose; assay type: organism-based; conditions: in vivo, 672 h
[2] = biological target: Serine/threonine-protein kinase TAO1 (Homo sapiens) (UniProt Q7L7X3); assay: Inhibition of human TAO1 (1 to 327 residues) using myelin basic protein as substrate measured after 40 mins in presence of [gamma33P]ATP by scintillation counting method; design: scale not given: the % may be the effect or the level left
Serine/threonine-protein kinase TAO1 (Homo sapiens), sequence (Q7L7X3 whole entry, the tested form may be a part): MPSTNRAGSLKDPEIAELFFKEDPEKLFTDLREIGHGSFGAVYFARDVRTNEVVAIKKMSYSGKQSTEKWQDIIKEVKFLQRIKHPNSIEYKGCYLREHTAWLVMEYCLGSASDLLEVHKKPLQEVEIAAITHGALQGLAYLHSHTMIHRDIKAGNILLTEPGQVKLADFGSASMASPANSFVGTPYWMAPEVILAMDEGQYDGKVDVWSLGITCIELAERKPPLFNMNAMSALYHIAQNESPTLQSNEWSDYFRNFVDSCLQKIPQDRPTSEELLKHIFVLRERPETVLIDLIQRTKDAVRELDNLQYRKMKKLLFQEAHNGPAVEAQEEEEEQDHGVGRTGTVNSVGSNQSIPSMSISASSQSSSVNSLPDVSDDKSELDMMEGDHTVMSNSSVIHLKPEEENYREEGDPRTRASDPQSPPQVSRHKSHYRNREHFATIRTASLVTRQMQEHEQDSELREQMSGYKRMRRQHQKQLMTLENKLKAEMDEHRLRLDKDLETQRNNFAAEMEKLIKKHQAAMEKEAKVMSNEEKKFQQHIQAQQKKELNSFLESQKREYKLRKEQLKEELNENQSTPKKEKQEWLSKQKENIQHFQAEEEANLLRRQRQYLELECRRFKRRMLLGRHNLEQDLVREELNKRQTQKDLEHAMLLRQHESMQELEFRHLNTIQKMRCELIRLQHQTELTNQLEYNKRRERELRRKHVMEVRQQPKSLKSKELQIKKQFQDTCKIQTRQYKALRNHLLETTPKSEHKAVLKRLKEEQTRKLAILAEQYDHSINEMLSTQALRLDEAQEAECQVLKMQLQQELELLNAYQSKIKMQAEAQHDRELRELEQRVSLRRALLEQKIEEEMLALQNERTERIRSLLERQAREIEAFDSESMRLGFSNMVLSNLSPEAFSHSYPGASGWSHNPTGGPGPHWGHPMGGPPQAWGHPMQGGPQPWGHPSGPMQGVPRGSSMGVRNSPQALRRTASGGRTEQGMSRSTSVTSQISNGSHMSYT

[3] = species on record: Homo sapiens; assay: Inhibition of human activated Tec F514V mutant (174 to end residues) using EFPIYDFLPAKKK as substrate measured after 40 mins in presence of [gamma33P]ATP by scintillation counting method; design: scale not given: the % may be the effect or the level left
[4] = test system: SW-620; assay: Induction of apoptosis in human SW620 cells assessed as viable cells at 50 nM measured after 48 hrs by Annexin V-FITC/propidium iodide staining-based flow cytometry (reference value: 94.7%); assay type: functional; conditions: SW-620, 48 h, read-out: Activity
[5] = biological target: Dual specificity mitogen-activated protein kinase kinase 6 (Homo sapiens) (UniProt P52564); assay: Inhibition of recombinant human MKK6 (4 to end residues) assessed as residual activity at 10 uM using unactive SAPK2a as substrate measured after 40 mins in presence of [gamma33P]ATP by scintillation counting method
[6] = test system: Epidermal growth factor receptor (Homo sapiens), P00533 [L858R]; assay: Inhibition of recombinant human EGFR L858R mutant (696 to end residues) assessed as residual activity at 10 uM using poly(Glu, Tyr) 4:1 as substrate measured after 40 mins in presence of [gamma33P]ATP by scintillation counting method
[7] = test system: SW-620; assay: Cell cycle arrest in human SW620 cells assessed as up regulation of CyclinB1 expression up to 150 nM after 24 hrs by Western blot analysis; assay type: functional, cell-based
[8] = biological target: Tyrosine-protein kinase FRK (Homo sapiens) (UniProt P42685); assay: Inhibition of human PTK5 (218 to end residues) using GGEEEEYFELVKKKK as substrate measured after 40 mins in presence of [gamma33P]ATP by scintillation counting method; design: scale not given: the % may be the effect or the level left
[9] = test system: Serine/threonine-protein kinase Sgk2 (Homo sapiens), Q9HBY8 [S416D]; assay: Inhibition of recombinant human SGK2 S416D mutant (54 to end residues) assessed as residual activity at 10 uM using GRPRTSSFAEGKK as substrate measured after 40 mins in presence of [gamma33P]ATP by scintillation counting method
[10] = biological target: Serine/threonine-protein kinase PAK 4 (Homo sapiens) (UniProt O96013); assay: Inhibition of recombinant human PAK4 (295 to end residues) assessed as residual activity at 10 uM using myelin basic protein as substrate measured after 40 mins in presence of [gamma33P]ATP by scintillation counting method
Serine/threonine-protein kinase PAK 4 (Homo sapiens), sequence (O96013 whole entry, looked up): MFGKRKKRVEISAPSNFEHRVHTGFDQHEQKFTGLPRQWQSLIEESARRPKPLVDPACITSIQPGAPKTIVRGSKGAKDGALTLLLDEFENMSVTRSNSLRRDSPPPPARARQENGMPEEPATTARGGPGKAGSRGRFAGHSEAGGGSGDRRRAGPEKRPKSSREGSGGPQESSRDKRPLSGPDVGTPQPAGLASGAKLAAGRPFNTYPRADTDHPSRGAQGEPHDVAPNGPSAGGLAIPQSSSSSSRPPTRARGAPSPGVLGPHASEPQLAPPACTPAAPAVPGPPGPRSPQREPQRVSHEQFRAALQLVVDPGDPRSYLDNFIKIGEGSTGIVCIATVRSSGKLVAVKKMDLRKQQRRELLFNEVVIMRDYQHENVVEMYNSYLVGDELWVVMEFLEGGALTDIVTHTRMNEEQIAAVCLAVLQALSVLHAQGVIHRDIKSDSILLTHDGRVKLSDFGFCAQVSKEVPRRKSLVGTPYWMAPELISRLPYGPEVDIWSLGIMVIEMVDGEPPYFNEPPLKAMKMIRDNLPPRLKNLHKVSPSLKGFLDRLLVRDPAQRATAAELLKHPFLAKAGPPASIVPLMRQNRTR

[11] = biological target: Serine/threonine-protein kinase Nek11 (Homo sapiens) (UniProt Q8NG66); assay: Inhibition of recombinant full-length human NEK11 assessed as residual activity at 10 uM using myelin basic protein as substrate measured after 40 mins in presence of [gamma33P]ATP by scintillation counting method
[12] = test system: SW-620; assay: Cell cycle arrest in human SW620 cells assessed as up regulation of cdc25 expression up to 150 nM after 24 hrs by Western blot analysis; assay type: functional, cell-based
[13] = biological target: Serine/threonine-protein kinase/endoribonuclease IRE1 (Homo sapiens) (UniProt O75460); assay: Inhibition of recombinant human IRE1 (465 to end residues) assessed as residual activity at 10 uM using myelin basic protein as substrate measured after 40 mins in presence of [gamma33P]ATP by scintillation counting method
[14] = biological target: G protein-coupled receptor kinase 3 (Homo sapiens) (UniProt P35626); assay: Inhibition of recombinant full-length human GRK3 assessed as residual activity at 10 uM using casein as substrate measured after 40 mins in presence of [gamma33P]ATP by scintillation counting method
[15] = Toxicity in Balb/c mouse lung at 80 mg/kg after 4 weeks by hematoxylin and eosin staining-based assay; assay type: organism-based; conditions: in vivo, 672 h
[16] = biological target: Insulin receptor (Homo sapiens) (UniProt P06213); assay: Inhibition of recombinant human IR (1005 to 1310 residues) assessed as residual activity at 10 uM using KKSRGDYMTMQIG as substrate measured after 40 mins in presence of [gamma33P]ATP by scintillation counting method
[17] = biological target: Tyrosine-protein kinase JAK1 (Homo sapiens) (UniProt P23458); assay: Inhibition of recombinant human JAK1 (866 to end residues) assessed as residual activity at 10 uM using GEEPLYWSFPAKKK as substrate measured after 40 mins in presence of [gamma33P]ATP by scintillation counting method
[18] = biological target: Serine/threonine-protein kinase MRCK beta (Homo sapiens) (UniProt Q9Y5S2); assay: Inhibition of recombinant human MRCKbeta (1 to 473 residues) assessed as residual activity at 10 uM using KKRNRTLTV as substrate measured after 40 mins in presence of [gamma33P]ATP by scintillation counting method
Serine/threonine-protein kinase MRCK beta (Homo sapiens), sequence (Q9Y5S2 whole entry, the tested form may be a part): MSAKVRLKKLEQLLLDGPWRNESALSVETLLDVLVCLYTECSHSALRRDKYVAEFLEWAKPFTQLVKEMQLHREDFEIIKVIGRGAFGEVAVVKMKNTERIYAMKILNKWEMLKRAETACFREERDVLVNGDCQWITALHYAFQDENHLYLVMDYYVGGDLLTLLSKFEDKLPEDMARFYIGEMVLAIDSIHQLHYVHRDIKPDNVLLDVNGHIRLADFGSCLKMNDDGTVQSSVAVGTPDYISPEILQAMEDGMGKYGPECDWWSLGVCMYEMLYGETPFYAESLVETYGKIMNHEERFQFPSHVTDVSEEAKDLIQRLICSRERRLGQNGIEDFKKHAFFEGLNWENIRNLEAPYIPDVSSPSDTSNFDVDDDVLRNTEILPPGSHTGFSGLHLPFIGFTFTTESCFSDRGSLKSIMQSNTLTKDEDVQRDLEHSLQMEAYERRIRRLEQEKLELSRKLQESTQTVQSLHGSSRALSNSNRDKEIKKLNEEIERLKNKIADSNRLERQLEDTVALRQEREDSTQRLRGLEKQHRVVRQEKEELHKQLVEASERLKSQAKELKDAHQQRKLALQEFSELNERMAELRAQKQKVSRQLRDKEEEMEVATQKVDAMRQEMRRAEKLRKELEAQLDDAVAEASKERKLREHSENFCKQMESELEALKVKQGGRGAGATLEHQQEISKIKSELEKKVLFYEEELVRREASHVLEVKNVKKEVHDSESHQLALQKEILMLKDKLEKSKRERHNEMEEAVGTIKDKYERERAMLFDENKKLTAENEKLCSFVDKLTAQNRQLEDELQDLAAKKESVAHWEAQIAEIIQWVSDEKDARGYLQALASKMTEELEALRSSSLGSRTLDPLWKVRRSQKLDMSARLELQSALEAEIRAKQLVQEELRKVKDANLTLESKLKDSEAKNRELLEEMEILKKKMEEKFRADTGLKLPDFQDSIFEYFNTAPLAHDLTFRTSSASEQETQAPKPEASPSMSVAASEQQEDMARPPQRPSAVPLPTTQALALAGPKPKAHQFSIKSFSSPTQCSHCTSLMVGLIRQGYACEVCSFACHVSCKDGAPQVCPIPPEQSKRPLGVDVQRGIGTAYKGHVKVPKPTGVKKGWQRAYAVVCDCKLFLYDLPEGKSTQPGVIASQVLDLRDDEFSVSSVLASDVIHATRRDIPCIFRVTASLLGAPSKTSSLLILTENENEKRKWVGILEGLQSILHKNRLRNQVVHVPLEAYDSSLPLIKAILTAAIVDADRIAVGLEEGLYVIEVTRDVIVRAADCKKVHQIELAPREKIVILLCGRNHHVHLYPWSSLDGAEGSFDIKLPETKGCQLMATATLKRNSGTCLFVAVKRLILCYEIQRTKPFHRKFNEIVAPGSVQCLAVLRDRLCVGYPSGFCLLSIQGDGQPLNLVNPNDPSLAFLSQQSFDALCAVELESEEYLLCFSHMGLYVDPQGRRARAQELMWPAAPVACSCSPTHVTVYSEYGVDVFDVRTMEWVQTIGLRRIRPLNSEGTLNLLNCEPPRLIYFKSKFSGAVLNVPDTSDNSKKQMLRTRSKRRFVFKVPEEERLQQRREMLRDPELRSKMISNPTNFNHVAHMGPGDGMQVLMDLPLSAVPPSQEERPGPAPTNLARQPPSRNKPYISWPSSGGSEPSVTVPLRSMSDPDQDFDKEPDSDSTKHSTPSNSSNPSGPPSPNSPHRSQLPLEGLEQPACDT

[19] = biological target: Myosin-IIIb (Homo sapiens) (UniProt Q8WXR4); assay: Inhibition of recombinant full-length human MYO3B (1 to 326 residues) assessed as residual activity at 10 uM using RLGRDKYKTLRQIRQ as substrate measured after 40 mins in presence of [gamma33P]ATP by scintillation counting method
Myosin-IIIb (Homo sapiens), sequence (Q8WXR4 whole entry, the tested form may be a part): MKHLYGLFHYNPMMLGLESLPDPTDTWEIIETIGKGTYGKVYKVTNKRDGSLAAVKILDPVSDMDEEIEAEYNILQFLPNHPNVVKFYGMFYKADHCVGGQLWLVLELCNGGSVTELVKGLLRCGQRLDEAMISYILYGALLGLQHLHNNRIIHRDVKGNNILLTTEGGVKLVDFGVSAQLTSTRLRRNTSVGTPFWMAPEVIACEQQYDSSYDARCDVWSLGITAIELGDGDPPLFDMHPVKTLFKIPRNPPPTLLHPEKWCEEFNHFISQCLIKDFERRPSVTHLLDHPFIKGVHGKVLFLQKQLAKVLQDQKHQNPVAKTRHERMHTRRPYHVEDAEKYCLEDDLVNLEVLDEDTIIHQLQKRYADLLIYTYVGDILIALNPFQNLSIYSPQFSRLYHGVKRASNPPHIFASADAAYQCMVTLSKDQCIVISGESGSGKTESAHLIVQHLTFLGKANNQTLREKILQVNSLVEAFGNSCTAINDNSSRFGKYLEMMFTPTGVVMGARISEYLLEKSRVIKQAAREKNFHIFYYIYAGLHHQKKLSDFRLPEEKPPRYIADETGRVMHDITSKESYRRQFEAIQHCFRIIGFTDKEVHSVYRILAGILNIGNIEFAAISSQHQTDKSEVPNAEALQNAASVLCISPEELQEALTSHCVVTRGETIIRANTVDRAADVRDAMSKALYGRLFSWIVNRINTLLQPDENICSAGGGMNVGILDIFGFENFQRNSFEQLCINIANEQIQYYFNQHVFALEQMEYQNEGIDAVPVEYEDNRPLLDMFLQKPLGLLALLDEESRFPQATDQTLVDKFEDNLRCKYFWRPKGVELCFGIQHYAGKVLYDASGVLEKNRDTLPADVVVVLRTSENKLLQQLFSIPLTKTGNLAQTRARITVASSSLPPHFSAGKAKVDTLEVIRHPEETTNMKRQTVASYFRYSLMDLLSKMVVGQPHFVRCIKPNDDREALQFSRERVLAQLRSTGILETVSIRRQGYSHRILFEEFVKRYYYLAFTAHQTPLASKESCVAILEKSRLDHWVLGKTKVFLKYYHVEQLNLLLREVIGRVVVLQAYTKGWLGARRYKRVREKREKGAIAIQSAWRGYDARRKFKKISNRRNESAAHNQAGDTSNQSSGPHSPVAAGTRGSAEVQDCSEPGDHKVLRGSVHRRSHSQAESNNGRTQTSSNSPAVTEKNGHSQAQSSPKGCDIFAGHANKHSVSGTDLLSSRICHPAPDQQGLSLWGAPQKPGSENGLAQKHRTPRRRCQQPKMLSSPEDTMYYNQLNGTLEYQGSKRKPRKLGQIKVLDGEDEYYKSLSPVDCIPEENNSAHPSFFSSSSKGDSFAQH

[20] = test system: HCT-116; assay: Induction of apoptosis in human HCT116 cells assessed as late apoptotic cells at 50 nM measured after 48 hrs by Annexin V-FITC/propidium iodide staining-based flow cytometry (reference value: 3.87%); assay type: functional
[21] = biological target: Ephrin type-A receptor 4 (Homo sapiens) (UniProt P54764); assay: Inhibition of recombinant human EphA4 (601 to 892 residues) assessed as residual activity at 10 uM using poly(Glu, Tyr) 4:1 as substrate measured after 40 mins in presence of [gamma33P]ATP by scintillation counting method
[22] = test system: eIF-2-alpha kinase GCN2 (Homo sapiens), Q9P2K8 [E556G]; assay: Inhibition of recombinant full-length human GCN2 E556G mutant assessed as residual activity at 10 uM using RSRSRSRSRSRSRSR as substrate measured after 40 mins in presence of [gamma33P]ATP by scintillation counting method
[23] = biological target: Dual specificity mitogen-activated protein kinase kinase 1 (Homo sapiens) (UniProt Q02750); assay: Inhibition of recombinant full-length human MEK1 assessed as residual activity at 10 uM using unactive MAPK2 as substrate measured after 40 mins in presence of [gamma33P]ATP by scintillation counting method
Dual specificity mitogen-activated protein kinase kinase 1 (Homo sapiens), sequence (Q02750 whole entry): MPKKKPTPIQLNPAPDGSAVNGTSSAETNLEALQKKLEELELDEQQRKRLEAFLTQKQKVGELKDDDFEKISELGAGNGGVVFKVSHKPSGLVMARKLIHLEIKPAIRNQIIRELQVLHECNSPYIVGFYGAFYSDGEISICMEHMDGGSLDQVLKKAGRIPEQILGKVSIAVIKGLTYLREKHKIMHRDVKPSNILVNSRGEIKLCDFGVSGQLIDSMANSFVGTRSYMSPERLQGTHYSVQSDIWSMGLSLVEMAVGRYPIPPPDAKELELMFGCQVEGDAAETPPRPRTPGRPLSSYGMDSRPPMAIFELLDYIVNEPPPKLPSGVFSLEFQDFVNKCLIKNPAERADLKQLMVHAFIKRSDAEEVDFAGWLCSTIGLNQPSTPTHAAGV

[24] = biological target: Tyrosine-protein kinase ZAP-70 (Homo sapiens) (UniProt P43403); assay: Inhibition of recombinant full-length human ZAP70 assessed as residual activity at 10 uM using poly(Glu, Tyr) 4:1 as substrate measured after 40 mins in presence of [gamma33P]ATP by scintillation counting method
[25] = biological target: Tyrosine-protein kinase Fes/Fps (Homo sapiens) (UniProt P07332); assay: Inhibition of recombinant human FES (2 to end residues) assessed as residual activity at 10 uM using poly(Glu, Tyr) 4:1 as substrate measured after 40 mins in presence of [gamma33P]ATP by scintillation counting method

In the case of `Cc1cc(C)c(CNc2nc(Cl)nc3c2ncn3C2CCCC2)c(=O)[nH]1`, the Activity [1] is reported as “Non-Toxic”, the Activity [2] is reported as 93.5% and the Activity [3] is reported as 96.5%. It also gave a viability at 0.05 µM [4] of 83.4%, an Activity [5] of 114% and an Activity [6] of 104%. The Activity [7] was “Active”, the Activity [8] was 102% and the Activity [9] was 112%. For the same compound, the Activity [10] was 106%, the Activity [11] was 102% and the Activity [12] was “Active”. The Activity [13] was 101%, the Activity [14] was 100% and the Activity [15] was “Non-Toxic”. The Activity [16] was 116%, the Activity [17] was 97.5% and the Activity [18] was 112%. For the same compound, the Activity [19] was 111%, the Activity [20] was 46.2% and the Activity [21] was 100%. It also gave an Activity [22] of 110%, an Activity [23] of 100% and an Activity [24] of 95.5%. The Activity [25] was 100%.

— ChEMBL document CHEMBL4311992, “Discovery of 3-(((9H-purin-6-yl)amino)methyl)-4,6-dimethylpyridin-2(1H)-one derivatives as novel tubulin polymerization inhibitors for treatment of cancer” (Eur J Med Chem, 2019)
